Results reported in ChEMBL document CHEMBL1201862, “PubChem BioAssay data set” (2004).
Activity calls are given as the source filed them.

Assays:
[1] = target: T1, Calpain-2 catalytic subunit (Sus scrofa, UniProt P43367); assay: m-calpain protease blockers, concentration series – biochemical, fluorogenic peptide substrate, dose response (AID 1420); type: functional
T1 sequence (P43367 whole entry): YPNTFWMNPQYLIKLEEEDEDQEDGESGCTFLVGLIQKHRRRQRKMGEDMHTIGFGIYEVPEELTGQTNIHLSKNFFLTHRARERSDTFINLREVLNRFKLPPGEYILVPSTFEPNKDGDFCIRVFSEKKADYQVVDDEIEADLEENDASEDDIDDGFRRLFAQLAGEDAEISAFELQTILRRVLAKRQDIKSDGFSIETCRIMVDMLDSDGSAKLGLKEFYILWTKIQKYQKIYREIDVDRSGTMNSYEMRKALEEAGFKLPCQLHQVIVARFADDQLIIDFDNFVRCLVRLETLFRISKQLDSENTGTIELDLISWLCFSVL

[2] = target: Genome polyprotein (dengue virus type 2, UniProt P29990); assay: flavivirus cap methylation enzyme inhibition – biochemical, confirmation dose response, primary screen (AID 588689); type: functional
[3] = target: T2, Zinc finger protein mex-5 (Caenorhabditis elegans, UniProt Q9XUB2); assay: potency of MEX-5 RNA-binding blockers – biochemical, C. elegans, fluorescence polarization, dose response (AID 1960)
T2 sequence (Q9XUB2 whole entry): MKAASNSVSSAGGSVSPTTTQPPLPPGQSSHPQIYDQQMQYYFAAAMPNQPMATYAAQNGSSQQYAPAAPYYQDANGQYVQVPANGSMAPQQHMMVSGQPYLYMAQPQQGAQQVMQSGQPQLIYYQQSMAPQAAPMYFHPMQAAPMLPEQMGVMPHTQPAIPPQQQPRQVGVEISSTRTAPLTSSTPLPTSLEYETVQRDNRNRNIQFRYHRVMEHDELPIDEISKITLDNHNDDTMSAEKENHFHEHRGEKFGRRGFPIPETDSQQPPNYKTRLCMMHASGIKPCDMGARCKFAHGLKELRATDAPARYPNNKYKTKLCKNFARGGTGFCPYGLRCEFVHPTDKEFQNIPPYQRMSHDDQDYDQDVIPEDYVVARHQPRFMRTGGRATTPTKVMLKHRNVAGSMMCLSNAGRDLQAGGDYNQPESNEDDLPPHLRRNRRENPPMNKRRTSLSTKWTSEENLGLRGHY

[4] = target: T3, RNA-binding protein pos-1 (Caenorhabditis elegans, UniProt G5EF15); assay: disruptors of C. elegans POS-1 RNA interaction – biochemical, fluorescence polarization, dose response (AID 1964);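 note: purified POS-1 fused to maltose binding protein made in E. coli; potency of compounds blocking POS-1 binding to fluorescent RNA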
T3 sequence (G5EF15 whole entry): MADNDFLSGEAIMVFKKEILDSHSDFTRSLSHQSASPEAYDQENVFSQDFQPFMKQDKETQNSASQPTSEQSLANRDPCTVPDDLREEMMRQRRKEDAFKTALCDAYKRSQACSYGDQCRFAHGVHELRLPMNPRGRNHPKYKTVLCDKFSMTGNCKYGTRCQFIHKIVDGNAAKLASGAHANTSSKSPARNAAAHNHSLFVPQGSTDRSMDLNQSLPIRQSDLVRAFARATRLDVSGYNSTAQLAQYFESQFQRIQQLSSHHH

[5] = Luminescence Cell-Based Dose Response HTS to Identify Inhibitors of 5'UTR Stem-Loop Driven Prion Protein mRNA Translation in H4 Neuroglioblastoma Cells. [Related pubchem assays: 1827 (Project Summary), 1813 (Primary HTS)]; type: functional
[6] = luciferase reporter signal suppression in cells – H4 neuroglioma cells, luminescence, dose response (AID 1990); type: functional, cell-based
[7] = alpha-synuclein stem-loop luciferase translation blockers – H4 neuroglioma cells, luminescence, confirmation (AID 1988); type: functional, cell-based
[8] = tested on: Vero; assay: cells; type: functional; conditions: Chlorocebus sabaeus
[9] = tested on: HEK293; assay: EBV LMP1 TES2 canonical NF-kB signalling blockers – cell-based, HEK293, luciferase, cherry-pick, dose response (AID 588343); type: functional; conditions: Homo sapiens
[10] = target: Nonstructural protein 1 (Influenza A virus, UniProt Q194T2); type: functional, Influenza A virus (A/California/07/2009(H1N1))
[11] = target: T4, High affinity choline transporter 1 (Homo sapiens, UniProt Q9GZV3); assay: human choline transporter blockers, potency – cell-based, 5-point CRC, membrane potential dye, dose response (AID 504840); type: functional
T4 sequence (Q9GZV3 whole entry): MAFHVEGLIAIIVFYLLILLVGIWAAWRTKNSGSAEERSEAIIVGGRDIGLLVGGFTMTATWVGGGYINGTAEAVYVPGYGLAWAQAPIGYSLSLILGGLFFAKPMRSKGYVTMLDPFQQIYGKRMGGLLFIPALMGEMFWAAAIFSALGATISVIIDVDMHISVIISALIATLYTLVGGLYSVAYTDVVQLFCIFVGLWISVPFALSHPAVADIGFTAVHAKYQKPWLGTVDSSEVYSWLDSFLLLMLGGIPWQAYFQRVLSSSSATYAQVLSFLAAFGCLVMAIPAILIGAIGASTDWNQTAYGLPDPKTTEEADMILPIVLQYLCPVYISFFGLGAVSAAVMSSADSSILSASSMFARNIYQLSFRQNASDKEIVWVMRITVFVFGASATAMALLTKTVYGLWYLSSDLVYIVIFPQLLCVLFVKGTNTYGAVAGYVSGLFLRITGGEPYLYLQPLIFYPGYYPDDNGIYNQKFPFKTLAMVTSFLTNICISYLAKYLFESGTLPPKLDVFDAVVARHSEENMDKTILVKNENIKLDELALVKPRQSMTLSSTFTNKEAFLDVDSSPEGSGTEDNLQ

[12] = tested on: H9c2; assay: cells; type: functional, cell-based; conditions: Rattus norvegicus, H9c2, Myocardium;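 note: confirmatory concentration-response retest of ultra-high-throughput screening hits for modulation of myocardial damage; cell death induced by hydrogen peroxide oxidative stress; compound pretreatment for 60 min then peroxide exposure for 2 h; potency is for protecting the cells against peroxide damage rather than for killing them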
[13] = target: Cytochrome P450 2C9 (Homo sapiens, UniProt P11712)
[14] = target: T5, Cytochrome P450 1A2 (Homo sapiens, UniProt P05177);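 note: PubChem cytochrome P450 panel assay, CYP1A2 panel member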
T5 sequence (P05177 whole entry): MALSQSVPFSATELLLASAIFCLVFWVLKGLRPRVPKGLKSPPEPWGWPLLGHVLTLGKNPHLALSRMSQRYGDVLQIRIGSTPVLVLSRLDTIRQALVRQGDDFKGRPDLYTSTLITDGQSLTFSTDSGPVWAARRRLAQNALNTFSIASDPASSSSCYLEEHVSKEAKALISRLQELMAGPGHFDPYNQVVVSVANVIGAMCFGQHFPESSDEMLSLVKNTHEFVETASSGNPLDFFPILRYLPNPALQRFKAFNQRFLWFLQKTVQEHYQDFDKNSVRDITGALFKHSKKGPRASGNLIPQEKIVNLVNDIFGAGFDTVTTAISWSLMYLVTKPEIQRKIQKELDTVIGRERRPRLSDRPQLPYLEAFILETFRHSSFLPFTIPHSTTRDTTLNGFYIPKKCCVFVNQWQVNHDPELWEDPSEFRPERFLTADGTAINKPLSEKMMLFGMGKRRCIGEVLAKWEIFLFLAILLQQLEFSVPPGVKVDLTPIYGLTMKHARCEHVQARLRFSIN

[15] = P. falciparum Dd2 growth inhibitors, dose response, SYBR Green, cherry-picked samples (AID 1159567); type: functional, cell-based
[16] = target: Cytochrome P450 2C19 (Homo sapiens, UniProt P33261); assay: Cytochrome panel assay with activity outcomes. Panel member name: p450-cyp2c19 Compounds with AC50 equal or less than 10 uM are considered active; type: functional; conditions: read-out: AC50
[17] = target: T6, Corticotropin-releasing factor receptor 2/Corticotropin-releasing factor-binding protein (Homo sapiens, UniProt P24387+Q13324); assay: activators of CRF receptor 2 with binding protein – uHTS hits, confirmation (AID 602473); type: functional; conditions: read-out: EC50_Mean
T6 sequence (Q13324 whole entry): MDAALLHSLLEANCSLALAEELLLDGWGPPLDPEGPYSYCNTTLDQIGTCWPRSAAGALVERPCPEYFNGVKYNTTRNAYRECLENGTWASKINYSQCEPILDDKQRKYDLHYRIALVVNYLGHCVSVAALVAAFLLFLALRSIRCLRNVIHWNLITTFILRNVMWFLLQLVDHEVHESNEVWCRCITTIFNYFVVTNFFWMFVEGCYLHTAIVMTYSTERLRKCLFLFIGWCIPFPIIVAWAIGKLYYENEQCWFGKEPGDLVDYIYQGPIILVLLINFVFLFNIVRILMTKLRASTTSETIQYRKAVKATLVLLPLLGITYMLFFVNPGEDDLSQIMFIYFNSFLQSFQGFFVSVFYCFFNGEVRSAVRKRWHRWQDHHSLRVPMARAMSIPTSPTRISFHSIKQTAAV
T6 sequence (P24387 whole entry): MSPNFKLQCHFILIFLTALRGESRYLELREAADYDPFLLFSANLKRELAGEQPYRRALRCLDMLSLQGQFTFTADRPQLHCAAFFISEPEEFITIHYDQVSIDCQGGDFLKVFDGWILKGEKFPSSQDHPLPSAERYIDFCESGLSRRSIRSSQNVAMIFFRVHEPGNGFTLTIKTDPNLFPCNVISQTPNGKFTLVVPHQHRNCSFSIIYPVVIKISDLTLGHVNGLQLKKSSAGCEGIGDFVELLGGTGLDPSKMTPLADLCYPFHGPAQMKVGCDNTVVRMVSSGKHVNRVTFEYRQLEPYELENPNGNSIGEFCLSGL

[18] = reduction of Shn3 3'UTR-driven luciferase in osteoblasts – cell-based, Clone20 osteoblasts, firefly luciferase, cherry-picked, dose response (AID 624132); type: functional;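 note: firefly luciferase luminescence from reporter carrying the Shn3 3'UTR in osteoblasts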
[19] = non-specific 3'UTR reporter inhibition in Clone20-Shn3RL – cell-based, Renilla luciferase, cherry-picked, counter-screen for Shn3 inhibitor project, dose response (AID 624133); type: functional
[20] = microbe, parasite or virus in culture; type: functional; conditions: Mycobacterium tuberculosis

Sequence of Nonstructural protein 1 (Q194T2 whole entry): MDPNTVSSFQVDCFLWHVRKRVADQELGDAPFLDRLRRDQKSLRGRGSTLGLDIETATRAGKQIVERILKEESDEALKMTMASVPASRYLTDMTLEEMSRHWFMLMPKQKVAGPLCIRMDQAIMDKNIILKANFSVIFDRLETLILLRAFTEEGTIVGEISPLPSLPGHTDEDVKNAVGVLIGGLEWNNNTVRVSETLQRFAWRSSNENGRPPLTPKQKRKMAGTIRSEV
Sequence of Genome polyprotein (P29990 2492-3391 limits assumed): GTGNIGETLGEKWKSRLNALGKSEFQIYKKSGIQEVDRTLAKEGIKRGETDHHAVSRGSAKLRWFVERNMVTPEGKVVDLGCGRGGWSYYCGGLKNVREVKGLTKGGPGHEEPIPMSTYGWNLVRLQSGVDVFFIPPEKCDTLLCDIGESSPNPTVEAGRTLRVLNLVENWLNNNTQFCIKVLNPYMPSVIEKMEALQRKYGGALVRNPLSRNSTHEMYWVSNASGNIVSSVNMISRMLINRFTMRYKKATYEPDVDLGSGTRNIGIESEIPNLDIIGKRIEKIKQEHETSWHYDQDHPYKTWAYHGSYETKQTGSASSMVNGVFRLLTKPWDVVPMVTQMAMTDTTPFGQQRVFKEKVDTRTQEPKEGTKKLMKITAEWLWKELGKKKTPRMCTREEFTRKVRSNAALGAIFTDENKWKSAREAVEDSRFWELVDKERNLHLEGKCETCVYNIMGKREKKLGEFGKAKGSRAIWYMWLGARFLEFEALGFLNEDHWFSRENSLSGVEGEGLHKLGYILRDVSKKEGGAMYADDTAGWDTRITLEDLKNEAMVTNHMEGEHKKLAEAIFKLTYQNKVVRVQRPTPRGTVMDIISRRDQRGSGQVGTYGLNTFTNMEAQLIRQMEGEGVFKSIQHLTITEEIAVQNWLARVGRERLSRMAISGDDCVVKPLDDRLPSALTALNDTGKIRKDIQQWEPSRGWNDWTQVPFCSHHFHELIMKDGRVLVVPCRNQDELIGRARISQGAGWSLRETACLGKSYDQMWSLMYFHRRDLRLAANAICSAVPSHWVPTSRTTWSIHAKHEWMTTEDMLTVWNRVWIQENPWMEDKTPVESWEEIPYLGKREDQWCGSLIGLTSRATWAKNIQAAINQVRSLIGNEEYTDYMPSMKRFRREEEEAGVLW
Sequence of Cytochrome P450 2C9 (P11712 whole entry): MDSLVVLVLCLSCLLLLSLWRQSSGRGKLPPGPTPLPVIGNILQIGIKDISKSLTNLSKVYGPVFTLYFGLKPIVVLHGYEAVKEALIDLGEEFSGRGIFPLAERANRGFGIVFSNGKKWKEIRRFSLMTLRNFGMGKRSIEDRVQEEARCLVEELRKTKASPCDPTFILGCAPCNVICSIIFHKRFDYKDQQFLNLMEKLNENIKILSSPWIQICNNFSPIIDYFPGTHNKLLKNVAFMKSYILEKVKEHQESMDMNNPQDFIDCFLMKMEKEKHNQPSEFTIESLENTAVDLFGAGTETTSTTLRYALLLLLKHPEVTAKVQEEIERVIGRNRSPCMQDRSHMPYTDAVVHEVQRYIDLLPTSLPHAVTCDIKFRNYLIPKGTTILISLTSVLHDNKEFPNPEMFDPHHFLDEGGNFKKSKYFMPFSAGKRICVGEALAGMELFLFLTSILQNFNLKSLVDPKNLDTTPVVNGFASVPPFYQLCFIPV
Sequence of Cytochrome P450 2C19 (P33261 whole entry): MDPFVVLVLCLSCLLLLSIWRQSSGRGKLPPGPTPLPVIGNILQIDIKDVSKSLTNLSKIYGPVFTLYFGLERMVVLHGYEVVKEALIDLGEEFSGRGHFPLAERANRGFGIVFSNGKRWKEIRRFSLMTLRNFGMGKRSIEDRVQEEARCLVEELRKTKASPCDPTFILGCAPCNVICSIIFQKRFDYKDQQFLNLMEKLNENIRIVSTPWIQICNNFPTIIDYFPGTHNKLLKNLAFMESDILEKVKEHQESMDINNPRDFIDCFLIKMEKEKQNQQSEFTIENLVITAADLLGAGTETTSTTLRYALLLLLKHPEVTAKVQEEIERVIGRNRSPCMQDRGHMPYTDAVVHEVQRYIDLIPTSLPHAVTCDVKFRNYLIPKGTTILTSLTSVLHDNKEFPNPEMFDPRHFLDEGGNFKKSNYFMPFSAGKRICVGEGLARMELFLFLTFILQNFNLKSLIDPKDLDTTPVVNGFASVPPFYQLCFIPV

## O=C(Nc1ccc2ccccc2c1)C(=O)C1C(=O)Nc2ccccc21 (stereo unspecified)
[1]
  IC50: < 0.4 µM (not active)

## CC(C)(C)OC(=O)N1CC=C2C(C#N)=C(N)C(C#N)(C#N)[C@H](c3cccnc3)[C@H]2C1
[2]
  IC50: > 100 µM (active)
[3]
  EC50: 54 µM (active)
[4]
  EC50: 61.7 µM (active)
[5]
  EC50: > 120 µM (not active)
[6]
  EC50: > 120 µM (not active)
[7]
  EC50: 60.3 µM (active)

## Cc1nn2c(NCCCN(C)C)c3c(nc2c1-c1ccccc1)CCCC3
[8]
  CC50: > 25 µM (active)

## CCN1CCN(Cc2ccc(NC(=O)c3ccc(C)c(NC(=O)c4cccc(-c5cnnc(O)c5)c4)c3)cc2C(F)(F)F)CC1
[9]
  AC50: 1.83 µM (active)

## CCCCNc1c([N+](=O)[O-])cc(C)cc1[N+](=O)[O-]
[10]
  IC50: 27.1 µM (active)

## CN(C)c1ccc(N=Nc2ccccc2C(=O)OCC(=O)N(C)c2ccccc2)cc1
[10]
  IC50: 21.2 µM (active)

## CCN(CC)c1[nH]cnc2c3ccccc3nc1-2
[11]
  IC50: 13.8 µM (active)

## CCOC(=O)N1CCN(C(=O)CSc2nc3ccccc3c(=O)n2-c2ccccc2)CC1
[12]
  IC50: 19.5 µM (active)

## Cc1ccc(/C=N/NC(=O)CSc2nc3nc(C)cc(C)n3n2)cc1
[13]
  AC50: 22.4 µM (inconclusive)
[14]
  AC50: 4.47 µM (inconclusive)

## COc1ccc(-c2ccc3c(c2)[C@H]2[C@H](CCN2C(=O)NC2CCCC2)[C@H](CO)N3C)cc1
[15]
  AC50: 5.37 µM (active)

## CCOC(=O)CNC(=O)CSc1nc2cc(Br)c(C)nc2[nH]1
[12]
  IC50: 24 µM (active)

## CCn1c(SCC(=O)Nc2ccccc2N2CCCCC2)nc2c1c(=O)n(C)c(=O)n2C
[12]
  IC50: > 79 µM (inactive)

## COc1ccc(S(=O)(=O)N2CCOCC2)cc1N=Nc1sc(N)nc1-c1ccccc1
[10]
  IC50: > 100 µM (active)
[5]
  EC50: > 120 µM (not active)
[6]
  EC50: 14.7 µM (active)
[7]
  EC50: 46.6 µM (active)

## COc1cc2c(cc1OC)CN(CC(=O)Nc1ccccc1C#N)CC2
[12]
  IC50: 34.2 µM (inactive)

## CCN(CC(=O)Nc1ccc2c(c1)OCCO2)C(=O)c1cccc(S(=O)(=O)N2CCOCC2)c1
[13]
  AC50: 11.2 µM (inconclusive)
[14]
  AC50: 12.6 µM (inconclusive)
[16]
  AC50: 22.4 µM (inconclusive)

## CC(=O)Nc1ccc(NC(=O)Cc2ccc(S(=O)(=O)N3CCCCC3)s2)cc1
[1]
  IC50: 2.64 µM (not active)

## C=CCN1C(=O)/C(=C/c2cccs2)C(=O)NC1=S
[2]
  IC50: 43.8 µM (active)

## COc1ccc(C2=CC(c3ccc(C)cc3)n3nnnc3N2)cc1 (stereo unspecified)
[17]
  EC50: > 53 µM (inactive)

## O=C1c2ccccc2NC(c2ccc([N+](=O)[O-])cc2)N1O (stereo unspecified)
[12]
  IC50: 10.4 µM (active)

## COc1ccc(-c2nn3c(-c4ccccc4)nnc3s2)cc1OC
[12]
  IC50: > 79 µM (inactive)

## CNc1nc(NN)nc(Nc2ccccc2)n1
[10]
  IC50: 15 µM (active)

## CCCCNC(=S)NC(=O)c1ccc(Cl)cc1Cl
[1]
  IC50: 4.25 µM (not active)

## CCC(C(=O)OCC(=O)Nc1ccc(Cl)c(S(=O)(=O)N(C)C)c1)c1ccccc1 (stereo unspecified)
[1]
  IC50: 13.3 µM (not active)

## CC(=O)Nc1nc(CCl)cs1
[1]
  IC50: > 50 µM (not active)

## CC1CN(C(=O)CCc2cc(C(C)(C)C)c(O)c(C(C)(C)C)c2)CC(C)O1 (stereo unspecified)
[18]
  AC50: 2.56 µM (active)
[19]
  AC50: 3.99 µM (active)

## Oc1ccc(Cl)cc1/C=N/c1ccc(Br)cc1
[12]
  IC50: 22.3 µM (active)

## CCOC(=O)c1c(NC(=O)C(C)Sc2cccc[n+]2[O-])sc2c1CCN(Cc1ccccc1)C2 (stereo unspecified)
[17]
  EC50: 4.81 µM (active)

## NC(=O)c1ccccc1/N=C/c1ccccn1
[12]
  IC50: 22.4 µM (active)

## O=C(Nc1ccccc1F)N1CC(=O)N2[C@H](CO)[C@@H](c3ccc(-c4ccccc4)cc3)[C@H]2C1
[15]
  AC50: 14.5 µM (active)

## CN(C)CCn1c(=S)[nH]c2ccccc2c1=O
[11]
  IC50: 13.2 µM (active)

## CCc1ccc([C@@H]2CC=C(C(=O)O)[C@H](c3ccc(C)cc3)N2S(=O)(=O)c2ccc(C)cc2)cc1
[2]
  IC50: 41.2 µM (active)

## CCCS(=O)(=O)c1nc(S(=O)(=O)c2ccc(C)cc2)c(N2CCCC2)s1
[17]
  EC50: > 53 µM (inactive)

## c1ccc2c(C3=NN=C(NC4CCCCC4)SC3)c[nH]c2c1
[1]
  IC50: 6.76 µM (not active)
[20]
  CC50: > 40 µM (active)
